In US8299114B2, “Bicyclic derivatives of azabicyclic carboxamides, preparation thereof and therapeutic use thereof” (priority 2008, dated 2012):

Legend:
TRPV1 receptors = target: T1, TRPV1 receptors (Mus musculus, UniProt Q704Y3); experiment: Pain induced by intraplantar administration of capsaicin to mice; assay type: in vivo; conditions: 10 mg/kg orally 120 minutes before intraplantar capsaicin, n=10, timed over 2 minutes
T1 construct: from tissue; host or cells: live mice, hind leg (in vivo)
Protocol: Pain Induced by Intraplantar Administration of Capsaicin to Mice. The intraplantar injection of capsaicin to mice rapidly produces short-lived nociceptive behaviour, which is reflected by licking, biting and flexing of the administered leg. […] Methodology: (E)-Capsaicin is initially diluted to 3 mg/ml in DMSO, and then diluted again for its final use to 1.5 μg/20 μl in physiological saline. […] The capsaicin is injected into the hind legs of the animal, on the upper face. The test compounds are administered orally 120 minutes before the injection of capsaicin. Two hours after administration of the compounds, the mice are placed in a glass beaker. The nociceptive behaviour of the animals is then assessed immediately by the experimenter, and the duration of the capsaicin-induced behavioural manifestations is timed over a period of 2 minutes (licking and biting, total or partial flexure of the injected leg). For each compound, an inhibition corresponding to the mean of the capsaicin-induced nociceptive responses, in response to a dose of test product (expressed in mg/kg) administered orally to a sample of a given number (n) of mice, is determined.

TRPV1 receptor = target: T2, TRPV1 receptor (Rattus norvegicus, UniProt O35433); experiment: Inhibition of the current induced with capsaicin on rat DRGs (whole-cell patch-clamp); assay type: cell-based; conditions: inhibition of control capsaicin response, newborn rat DRG neurones
T2 construct: DRG neurones naturally express the TRPV1 receptor; endogenous in cells; host or cells: primary culture of newborn rat dorsal root ganglion neurones
Protocol: Test of Inhibition of the Current Induced with Capsaicin on Rat DRGs
• Primary culture of rat dorsal root ganglion (DRG) cells:
DRG neurones naturally express the TRPV1 receptor.
The primary cultures of newborn rat DRGs are prepared using 1-day-old rats. Briefly, after dissection, the ganglions are trypsinized and the cells dissociated by mechanical trituration. The cells are resuspended in an Eagle basal culture medium containing 10% foetal calf serum, 25 mM KCl, 2 mM glutamine, 100 μg/ml gentamicin and 50 ng/ml of NGF, and then deposited on glass slides coated with laminin (0.25×10^6 cells per slide), which are then placed in Corning 12-well dishes. The cells are incubated at 37° C. in a humidified atmosphere containing 5% CO2 and 95% air. […]
The measuring chambers (volume 800 μl) containing the cell preparation are placed on the platform of an inverted microscope (Olympus IMT2) equipped with Hoffman optics (Modulation Contrast, New York) and observed at a magnification of 400×. […] The overall currents (membrane potential set at −60 mV) are recorded with an Axopatch 1D amplifier (Axon Instruments, Foster City, Calif.), connected to a PC running the Pclamp8 software (Axon Instrument). The current plots are recorded on paper and simultaneously digitized (sampling frequency 15 to 25 Hz) and acquired on the hard drive of the PC. […]

T2 sequence (O35433 whole entry): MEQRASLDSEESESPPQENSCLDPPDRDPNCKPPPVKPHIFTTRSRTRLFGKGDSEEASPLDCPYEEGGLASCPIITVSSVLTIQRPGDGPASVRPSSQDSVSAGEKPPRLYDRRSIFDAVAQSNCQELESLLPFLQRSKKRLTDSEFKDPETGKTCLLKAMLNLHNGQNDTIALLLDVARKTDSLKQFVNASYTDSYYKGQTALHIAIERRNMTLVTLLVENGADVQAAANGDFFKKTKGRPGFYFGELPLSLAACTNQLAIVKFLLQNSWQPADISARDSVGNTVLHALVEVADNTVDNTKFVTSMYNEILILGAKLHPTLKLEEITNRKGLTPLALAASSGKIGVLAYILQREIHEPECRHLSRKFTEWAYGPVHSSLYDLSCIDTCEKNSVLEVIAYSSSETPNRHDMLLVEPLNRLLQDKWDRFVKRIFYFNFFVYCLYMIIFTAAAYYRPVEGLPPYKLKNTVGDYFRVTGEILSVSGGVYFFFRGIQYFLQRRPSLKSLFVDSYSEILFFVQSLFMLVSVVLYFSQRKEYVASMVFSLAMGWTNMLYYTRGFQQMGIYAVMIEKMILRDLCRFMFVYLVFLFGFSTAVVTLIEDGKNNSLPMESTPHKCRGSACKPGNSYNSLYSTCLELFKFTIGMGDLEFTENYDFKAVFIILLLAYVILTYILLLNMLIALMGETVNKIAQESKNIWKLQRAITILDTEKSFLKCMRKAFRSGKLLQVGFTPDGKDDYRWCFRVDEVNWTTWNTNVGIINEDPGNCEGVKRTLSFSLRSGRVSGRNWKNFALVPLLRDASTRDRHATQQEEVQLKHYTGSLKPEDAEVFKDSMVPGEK
T1 sequence (Q704Y3 whole entry): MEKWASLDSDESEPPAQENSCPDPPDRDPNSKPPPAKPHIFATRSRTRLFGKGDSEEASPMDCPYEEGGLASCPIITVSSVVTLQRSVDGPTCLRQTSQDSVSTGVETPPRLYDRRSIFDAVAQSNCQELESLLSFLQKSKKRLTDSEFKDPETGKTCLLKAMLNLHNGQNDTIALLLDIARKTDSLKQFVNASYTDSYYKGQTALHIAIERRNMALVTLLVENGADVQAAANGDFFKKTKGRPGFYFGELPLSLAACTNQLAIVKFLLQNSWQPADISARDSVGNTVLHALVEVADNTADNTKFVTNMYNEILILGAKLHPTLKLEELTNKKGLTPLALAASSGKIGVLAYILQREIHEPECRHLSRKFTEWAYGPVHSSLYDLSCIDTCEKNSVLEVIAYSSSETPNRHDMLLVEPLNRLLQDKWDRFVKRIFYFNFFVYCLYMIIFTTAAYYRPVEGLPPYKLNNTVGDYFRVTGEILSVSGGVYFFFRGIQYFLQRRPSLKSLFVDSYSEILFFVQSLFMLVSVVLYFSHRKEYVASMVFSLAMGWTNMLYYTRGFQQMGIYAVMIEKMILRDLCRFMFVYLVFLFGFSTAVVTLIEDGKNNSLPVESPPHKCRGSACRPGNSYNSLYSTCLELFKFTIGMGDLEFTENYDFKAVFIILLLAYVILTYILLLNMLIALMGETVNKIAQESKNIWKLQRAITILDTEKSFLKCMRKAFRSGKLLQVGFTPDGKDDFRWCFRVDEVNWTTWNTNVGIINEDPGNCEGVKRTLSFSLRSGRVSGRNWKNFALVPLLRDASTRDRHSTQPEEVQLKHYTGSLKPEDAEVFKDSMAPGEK

% inhibition of the capsaicin-induced nociceptive responses (TRPV1 receptors) | inhibition at 0.0001 µM (TRPV1 receptor; 0.1 nM compound) [%] | SMILES | melting point [°C] | inhibition at 0.1 µM (TRPV1 receptor; 100 nM compound) [%]
37% (±8%) | 65.5 | O=C(Nc1cnc2sc(CO)nc2c1)c1cc2cc(F)ccc2n1Cc1cccc(F)c1 [Compound 4, N-(2-Hydroxymethylthiazolo[5,4-b]pyrid-6-yl)-5-fluoro-1-[(3-fluorophenyl)methyl]-1H-indole-2-carboxamide] | – | –
– | – | Cc1nc2cc(NC(=O)c3cc4cc(F)ccc4n3Cc3cccc(F)c3)cnc2[nH]1 [Compound 11, N-(2-Methyl-3H-imidazo[4,5-b]pyrid-6-yl)-5-fluoro-1-[(3-fluorophenyl)methyl]-1H-indole-2-carboxamide] | 299 to 300 | 62
